Assay results as given in the supplement of paper PMC10477900.
Where a name gives a salt, the structure may show the parent alone.

Assays:
HCT116 [1] = assay: viability inhibition vs untreated; higher = more cytotoxic; details: 72 h
HCT116 [2] = details: 72 h
Description: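 HCT116 control and MTA1-KO (CRISPR) HCT116 cells were seeded in 384-well plates (800 cells/well), treated 16 h later with 237 metabolism-related anticancer drugs at five doses (10 uM, 2 uM, 400 nM, 80 nM, 16 nM) for 72 h, two replicates; viability by CCK8. Values are % inhibition of viability relative to untreated cells, plus fitted IC50.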

SMILES | viability inhibition (HCT116 [1]; genotype: MTA1-KO, 16 nM) [%] | viability inhibition (HCT116 [1]; genotype: MTA1-KO, 80 nM) [%] | viability inhibition (HCT116 [1]; genotype: MTA1-KO, 400 nM) [%] | viability inhibition (HCT116 [1]; genotype: MTA1-KO, 2000 nM) [%] | viability inhibition (HCT116 [1]; genotype: MTA1-KO, 10000 nM) [%] | viability inhibition (HCT116 [1]; genotype: control, 16 nM) [%] | viability inhibition (HCT116 [1]; genotype: control, 80 nM) [%] | viability inhibition (HCT116 [1]; genotype: control, 400 nM) [%] | viability inhibition (HCT116 [1]; genotype: control, 2000 nM) [%] | viability inhibition (HCT116 [1]; genotype: control, 10000 nM) [%] | IC50 (HCT116 [2]; genotype: MTA1-KO) [µM] | IC50 (HCT116 [2]; genotype: control) [µM]
CNCc1cc(-c2ccccc2F)n(S(=O)(=O)c2cccnc2)c1 [Vonoprazan fumarate] | 12 | -19.8 | -19.3 | -21.7 | -12.1 | -12.5 | -10.5 | -14.4 | -16 | 11.8 | > 10 | > 10
CC(C)CC(N)=O [Isovaleramide] | -15.6 | -17.2 | -11.3 | -17.2 | -13 | -6.22 | -6.16 | -2.21 | -1.96 | -10.4 | > 10 | > 10
COC(=O)c1ccc(O)c(NC(=O)COc2ccc(C34CC5CC(CC(C5)C3)C4)cc2)c1 [LW6] | 1.16 | 1.05 | -7.41 | 5.31 | 49.9 | -13.6 | -18.1 | -10.6 | -9.1 | -7.79 | 9.47 | > 10
C[C@]12CC[C@H](O)C[C@H]1CC[C@@H]1[C@@H]2CC[C@]2(C)[C@@H](c3ccc(=O)oc3)CC[C@]12O [Bufalin] | 15.4 | 39 | 58.6 | 83.8 | 91 | 65.7 | 67.6 | 69.3 | 77.6 | 80.9 | 0.143 | < 0.016
CC(N)=NCc1cccc(CN)c1 [1400W dihydrochloride] | 5.1 | -4.81 | -3.44 | -9.66 | 42.6 | 5.38 | -11.1 | -13.9 | -9.74 | 2.89 | > 10 | > 10
NNC(=O)c1ccncc1 [Isoniazid] | -5.84 | -18.3 | -14.4 | -18.3 | -0.042 | -10.3 | -11.9 | -11.5 | 1.11 | 38 | > 10 | > 10
C/C(=C1/C(=O)Nc2ccc(NC(N)=O)cc21)c1ccc[nH]1 [BX517] | -1.27 | -4.96 | -15 | -7.43 | 62.3 | 7.33 | -2.63 | 0.244 | 10.4 | 67.6 | 7.24 | 6.88
OCc1ccc(-c2ccc(-c3ccc(CO)s3)o2)s1 [RITA] | 7.71 | 35 | 91.7 | 101 | 99 | -0.895 | 27.2 | 72.5 | 96.3 | 104 | 1.21 | 0.153
CCn1c(=O)c(-c2ccn[nH]2)cc2c(C)nc(N)nc21 [Voxtalisib] | 5.96 | -3.02 | 6.24 | 35.5 | 72.3 | 8.11 | 25.4 | 16.1 | 37.2 | 70.3 | 2.36 | 5.49
COc1ccc(Cc2cnc(N)nc2N)cc1OC [Diaveridine] | 9.72 | -12.4 | -14.2 | -12.8 | 8.55 | 7.02 | -9.3 | -5.19 | -12.6 | 10.2 | > 10 | > 10
O=C(O)CNC(=O)c1c(O)c2ccccc2n(Cc2ccccc2)c1=O [IOX 2] | 15.5 | -17.5 | -20.5 | -22 | 9.66 | -6.02 | 3.87 | -7.43 | -4.74 | -0.498 | > 10 | > 10
COC(=O)Nc1ccc(-c2nc(N3CCOCC3)c3cnn(C4CCN(C(=O)OC)CC4)c3n2)cc1 [WYE354] | 2.45 | -4.99 | -5.74 | 4.61 | 59.8 | -11.9 | -23.4 | -20.1 | -21.3 | 40.4 | 2.79 | > 10
O=C(c1ccc(NS(=O)(=O)c2cccc3cccnc23)cc1)N1CCN(CC2CC2)CC1 [Mitapivat] | 1.32 | 0.728 | -12.6 | -14.4 | -2.88 | -8.53 | -14.2 | -22.8 | -10.3 | -12.3 | > 10 | > 10
Cc1c(CN2CCN(c3cccc(C(F)(F)F)c3)CC2)cc(-c2ccccc2)n1NC(=O)c1ccncc1 [Sudoterb free base] | -13.3 | -15.8 | -16 | -17 | 44.1 | -4.96 | 1.24 | -11 | -15 | -4.96 | > 10 | > 10
Nc1nonc1C(=Nc1ccc(F)c(Cl)c1)NO | 11.1 | 13.3 | 16.9 | 23.6 | 36.3 | 10.4 | 19 | -4.25 | 11 | 9.01 | > 10 | > 10
CCN1C(=O)CNc2ncc(-c3ccc(-c4ncn[nH]4)nc3C)nc21 [CC115] | 5.59 | -19.9 | -8.79 | 27.2 | 81.2 | -13.9 | -10.3 | -8.79 | 7.12 | 74.9 | 2.13 | 4.96
O=c1cc(-c2ccc(O)cc2)oc2cc(O)cc(O)c12 [Apigenin] | -5.33 | -2.46 | -0.547 | -8.58 | 12.7 | 20.8 | 0.478 | 4.05 | 4.56 | 44.8 | > 10 | > 10
O=c1c(O)c(-c2ccc(O)cc2)oc2cc(O)cc(O)c12 [Kaempferol] | 9.79 | 3.08 | 3.45 | 10.9 | 39 | 7.5 | 18.7 | -0.112 | 8.84 | 23.1 | > 10 | > 10
Nc1cc(C(F)(F)F)c(-c2nc(N3CCOCC3)nc(N3CCOCC3)n2)cn1 [PI3K-IN-2] | 23.9 | 23 | 49.3 | 88.7 | 90.2 | -12.8 | 0.462 | 27.1 | 73.3 | 83.3 | 0.468 | 0.7
